Legend:
[1] = test system: Erk phosphorylation in Panc10.05 (G12D) cells; test: In-Cell Western Erk phosphorylation; format: cell-based; conditions: EC50, one hour treatment; read-out: In-Cell Western Erk phosporylation Panc10.05 (G12D)
Procedure: (§1) In-cell phosphorylation assays for Erk and Akt were performed on various of the compounds and exemplary results are shown in Table 3 below using […] and Panc10.05 cell lines for G12D K-ras mutants.
(§2) Cells are seeded in complete medium into black sided, clear-bottom 384-well microplates at 3000 cells/[…]/well. Plates are returned to 37° C. CO2 incubator for 18 hr. Drug is made as 200× in DMSO and diluted into medium to 10×. To each well is added 4 ul 10× test article or controls, and plates are returned to the incubator. Final assay DMSO concentration is 0.5%. After one hour, cells are fixed in formaldehyde, rinsed & permeabilized with triton X-100, and blocked with BSA/Goat serum blocking solution. Primary phospho-Akt and phospho-ERK antibodies are added and plates are incubated overnight at 4° C. Plates are rinsed with Tween-20 wash buffer and secondary antibody (Goat anti-rabbit, Thermofisher) is added. After 2 hours, plates are rinsed in Tween-20 wash buffer, and then PBS. Plates are imaged on the Celigo (Nexcelom) and cellular fluorescence is quantitated. Full inhibition of phospho-Akt is achieved with 1 uM BEZ235 (Sellekchem), while full inhibition of phospho-ERK is achieved with 1 uM MEK Inhibitor II Calbiochem). EC50 values are calculated using Graphpad Prism.

[2] = test system: Erk phosphorylation in Panc1 (G12D) cells; test: In-Cell Western Erk phosphorylation; format: cell-based; conditions: EC50, one hour treatment; read-out: In-Cell Western Erk phosporylation Panc1 (G12D)
Procedure: as §1, §2

Panc1 (G12D) cells = test: 72 hr cell viability (CellTiterBlue); format: cell-based; conditions: GI50, 72 hr
Procedure: (§3) Viability assays were performed on exemplary compounds and Table 2 below lists exemplary results for selected compounds tested on wild type (Ishikawa) and various K-ras mutants (Panc1-G12D; Panc10.05-G12D; HCT116-G13D).
(§4) Cells are counted and seeded at 1000 cells/36 ul medium/well into 384-well microplates. Cells are returned to 37° C. CO2 incubator for 18 hr. Drug is made as 200× in DMSO and diluted into medium to 10×. To each well is added 4 ul 10× drug, and plates are returned to the incubator. Final assay DMSO concentration is 0.5%. After 72 hr, 8 ul CellTiterBlue (Promega) is added to each well. After 3 hr, fluorescence (Ex550/Em590) is determined on the Victor Plate Reader (Perkin Elmer). Assay range is determined by DMSO control (100% viability) and 100 uM tamoxifen (0% viability). GI50 values are calculated using Graphpad Prism.

Panc10.05 (G12D) cells = test: 72 hr cell viability (CellTiterBlue); format: cell-based; conditions: GI50, 72 hr
Procedure: as §3, §4

K-ras wild-type (GTP) = K-ras wild-type (GTP) (Homo sapiens, UniProt P01116); test: SPR assay (surface plasmon resonance); format: binding; conditions: 25° C., 8% DMSO
In short: (§5)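 His-tagged K-ras (GDP- or GTP-bound) captured on Ni-NTA surface (4000 RU); running buffer 10 mM HEPES pH 7.4, 150 mM NaCl, 0.1% Tween-20, 1 mM MgCl2, 8% DMSO; 25° C, 50 μL/min. Compounds injected by Taylor diffusion gradient, buffer blanks double-referenced, kinetic/affinity model fitting.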

K-ras wild-type (GDP) = K-ras wild-type (GDP) (Homo sapiens, UniProt P01116); test: SPR assay (surface plasmon resonance); format: binding; conditions: 25° C., 8% DMSO
In short: as §5

K-ras G12D (GDP) = K-ras G12D (GDP) (Homo sapiens, UniProt P01116, G12D); test: SPR assay (surface plasmon resonance); format: binding; conditions: 25° C., 8% DMSO
In short: as §5

K-ras G12D (GTP) = K-ras G12D (GTP) (Homo sapiens, UniProt P01116, G12D); test: SPR assay (surface plasmon resonance); format: binding; conditions: 25° C., 8% DMSO
In short: as §5

K-ras G12V (GTP) = K-ras G12V (GTP) (Homo sapiens, UniProt P01116, G12V); test: SPR assay (surface plasmon resonance); format: binding; conditions: 25° C., 8% DMSO
In short: as §5

`Cc1nc(C)c(C(=O)Nc2nc(-c3ccc4[nH]c(=O)[nH]c4c3)cs2)s1` [Compound 4562] gave an EC50 [1] of 4 µM, an EC50 [2] of 5 µM and an IC50 (Panc1 (G12D) cells) of 6 µM. The IC50 (Panc10.05 (G12D) cells) was 2 µM, the “SPR Assay Wild-type (GTP) Kd” value (K-ras wild-type (GTP)) was “No binding/fit” and the “SPR Assay Wild-type (GDP) Kd” value (K-ras wild-type (GDP)) was “No”. The Kd (K-ras G12D (GDP)) was 111 µM, the “SPR Assay G12D (GDP) Rmax” value (K-ras G12D (GDP)) was “Rmax = 66.0 ± 0.9” and the “SPR Assay G12D (GTP) Kd” value (K-ras G12D (GTP)) was “No binding/fit”. The “SPR Assay G12V (GTP) Rmax” value (K-ras G12V (GTP)) was “Rmax = 300000” and the Kd (K-ras G12V (GTP); value in mM) was 10 mM.
